Data reported in publication PMC11187190, “Structural insights into GABAA receptor potentiation by Quaalude” (Nature Communications, 2024).
“And” between values parts separate entries of the source, which are not always exact repeats. Equal values may be shown once. “Also recorded” adds a separate entry of the source. Read-outs that look alike come from different tables or passages of the source.

What was measured:
[1] = test system: α1M236Wβ2γ2 GABAA receptor; conditions: α1M236W, cited from earlier work
[2] = test system: β2N265M mutant α1β2γ2 GABAA receptor; experiment: Whole-cell patch-clamp electrophysiology, TMD site mutant incl. diazepam competition; type: cell-based; conditions: for Effect on potentiation by diazepam (competition assay): diazepam 1 µM, methaqualone 100 µM
Description: (§1) Whole-cell voltage-clamp recordings were collected on the adherent HEK293S GnTI^− that were transiently transfected with the tri-cistronic pEZT construct used for structural analyses, as well as with GFP protein in pEZT for selection. The amount of plasmids used for transfection was 0.2–0.6 μg, and transfection was performed according to Lipofectamine2000 manufacturer’s protocol. The protein was expressed for 1–3 days at 30 °C. On the day of recording, cells were plated onto a 35 mm dish and washed with bath solution (140 mM NaCl, 2.4 mM KCl, 4 mM MgCl2, 4 mM CaCl2, 10 mM HEPES pH 7.3, and 10 mM glucose). Borosilicate pipettes were pulled and polished to an initial resistance of 2–4 MΩ. Pipettes were filled with the pipette solution (100 mM CsCl, 30 mM CsF, 10 mM NaCl, 10 mM EGTA, and 20 mM HEPES pH 7.3). Cells were clamped at −75 mV. The recordings were made using an Axopatch 200B amplifier, sampled at 5 kHz, and low pass filtered at 2 kHz using Digidata 1440 A (Molecular Devices), and analyzed with pClamp 10 software (Molecular Devices). Ligand solutions were prepared in a bath solution. A gravity-driven RSC-200 rapid solution changer (Bio-Logic) was used for solution exchange.
Statistical analysis in Fig. 3 and Fig. 4 was performed using GraphPad Prism 9.2.0 software (GraphPad Software, Inc., La Jolla, CA). Data are expressed as means ± standard deviation of at least three recordings from independent cells. The two-tailed Welch’s t-test was used. A p-value of ≤0.05 was considered statistically significant.

[3] = test system: α1β2M286Wγ2 GABAA receptor; conditions: β2M286W, cited from earlier work
[4] = test system: α1β2M286Aγ2 GABAA receptor; conditions: β2M286A; cited from earlier work
[5] = test system: α1M236Aβ2γ2 GABAA receptor; conditions: α1M236A; cited from earlier work
[6] = test system: α1β2γ2 GABAA receptor; conditions: cited from earlier work
[7] = test system: α1β2N265Mγ2 GABAA receptor; conditions: β2N265M, cited from earlier work
[8] = test system: α1β2γ2 GABAA receptor; set-up: method as in Zhu S et al., 2018; conditions: ref Zhu S et al., 2018, cited from earlier work
[9] = test system: β1-containing GABAA receptors; conditions: cited from earlier work
[10] = test system: β2/3N265M GABAA receptor; conditions: cited from earlier work
[11] = test system: βM286W GABAA receptor; conditions: cited from earlier work
[12] = test system: α6β2N265Sδ GABAA receptor; conditions: β2N265S in α6β2δ, cited from earlier work
[13] = biological target: T1, α1Y210A/γ2F77A mutant α1β2γ2 GABAA receptor (Homo sapiens, UniProt P14867+P18507+P47870, DEL344-414/DEL362-381/DEL386-444/F116A/F383Q/G341Q/I446A/K384P/R340S/S415R/S417A/V416A/Y237A/Y342P); experiment: Whole-cell patch-clamp electrophysiology, benzodiazepine-site double mutant; type: cell-based; conditions: 500 µM and 1000 µM methaqualone with GABA EC10, vs cryo-EM construct
T1 construct: twin-strep tag (N); expressed in transfected cells; host or cells: HEK293S GnTI- (text: HEK cells)
T1 sequence (P14867 with tags, fused parts or gaps Y237A/R340S/G341Q/Y342P/DEL344-414/S415R/V416A/S417A): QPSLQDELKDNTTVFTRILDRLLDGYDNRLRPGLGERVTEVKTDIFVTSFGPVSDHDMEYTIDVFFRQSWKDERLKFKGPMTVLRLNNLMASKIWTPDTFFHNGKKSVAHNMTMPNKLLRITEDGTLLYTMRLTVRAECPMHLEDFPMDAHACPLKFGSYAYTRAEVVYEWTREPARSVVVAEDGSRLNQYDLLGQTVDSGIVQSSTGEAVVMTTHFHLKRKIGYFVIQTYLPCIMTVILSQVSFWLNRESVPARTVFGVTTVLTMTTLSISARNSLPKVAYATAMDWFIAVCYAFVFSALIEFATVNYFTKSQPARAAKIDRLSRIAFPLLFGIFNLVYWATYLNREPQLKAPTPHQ
T1 sequence (P47870 with tags, fused parts or gaps): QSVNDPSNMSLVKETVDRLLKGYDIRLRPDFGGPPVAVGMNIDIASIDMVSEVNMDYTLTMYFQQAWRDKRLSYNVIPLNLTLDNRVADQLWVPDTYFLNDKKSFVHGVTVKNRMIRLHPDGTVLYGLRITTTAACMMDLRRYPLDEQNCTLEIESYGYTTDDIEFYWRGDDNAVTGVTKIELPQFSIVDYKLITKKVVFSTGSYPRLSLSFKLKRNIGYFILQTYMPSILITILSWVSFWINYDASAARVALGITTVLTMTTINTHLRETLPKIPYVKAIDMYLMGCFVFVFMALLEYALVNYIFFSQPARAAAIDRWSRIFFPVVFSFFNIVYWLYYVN
T1 sequence (P18507 with tags, fused parts or gaps F116A/DEL362-381/F383Q/K384P/DEL386-444/I446A): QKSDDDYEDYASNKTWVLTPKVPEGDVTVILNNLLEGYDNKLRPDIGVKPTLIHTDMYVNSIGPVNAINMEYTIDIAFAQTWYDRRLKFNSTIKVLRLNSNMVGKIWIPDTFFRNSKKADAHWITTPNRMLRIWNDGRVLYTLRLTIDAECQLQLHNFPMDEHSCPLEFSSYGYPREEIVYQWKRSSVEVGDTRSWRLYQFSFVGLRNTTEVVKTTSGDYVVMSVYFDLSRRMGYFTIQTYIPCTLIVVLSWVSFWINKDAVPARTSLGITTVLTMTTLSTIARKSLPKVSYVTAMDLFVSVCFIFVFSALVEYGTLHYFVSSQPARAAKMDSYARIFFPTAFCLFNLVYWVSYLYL
Description: as §1, with “A gravity-driven RSC-200 rapid solution changer (Bio-Logic) was used for solution exchange.” left out
Statistical analysis in Fig. 3 and Fig. 4 was performed using GraphPad Prism 9.2.0 software (GraphPad Software, Inc., La Jolla, CA). Data are expressed as means ± standard deviation of at least three recordings from independent cells. […]

[14] = test system: α1H102R α1β2γ2 GABAA receptor; conditions: 300 µM methaqualone; cited from earlier work
[15] = test system: α6β1S265Nδ GABAA receptor; conditions: β1S265N in α6β1δ, cited from earlier work

## NCCCC(=O)O [GABA, γ-aminobutyric acid]
[1]
  Effect of mutation on receptor sensitivity to GABA: increases receptor sensitivity to GABA

## CN1C(=O)CN=C(c2ccccc2)c2cc(Cl)ccc21 [diazepam]
[2]; N265M, relative to GABA EC10, single recordings, listed as DZ
  Relative current, GABA EC10 + DZ 1uM: 1.349 and 1.602 and 1.299 and 1.556

## Cc1ccc(-n2c(-c3ccccc3)nc3ccccc3c2=O)cc1 [PPTQ, 2-phenyl-3-(p-tolyl)-quinazolin-4(3H)-one]
[3]
  Effect of mutation on PAM activity: significantly decreases its PAM efficacy; also recorded: pronounced decrease in PAM activity
  Effect of mutation on direct activation (agonist activity): completely abolishes PPTQ agonist activity; also recorded: Elimination of direct activation
[4]
  Effect of mutation on PAM activity: significantly decreases its PAM efficacy; also recorded: decreased PAM activity
  Effect of mutation on direct activation (agonist activity): completely abolishes PPTQ agonist activity; also recorded: Elimination of direct activation
[5]
  Effect of mutation on PAM activity: negligible effects; also recorded: No significant difference
  Effect of mutation on direct activation (agonist activity): negligible effects; also recorded: No significant difference
[1]
  Effect of mutation on PAM activity: PAM efficacy plummets; also recorded: decreased PAM activity
  Effect of mutation on direct activation (agonist activity): dramatically more efficacious agonists; also recorded: Pronounced increase in direct activation
[6]; α1β2γ2 receptor subtype
  Higher modulatory potency (EC50 value) than methaqualone: ~50 fold
[7]
  Effect of mutation on PAM activity: reduces the PAM activity of methaqualone and PAM and agonist activities of PPTQ significantly; also recorded: Elimination
  Effect of mutation on direct activation (agonist activity): reduces the PAM activity of methaqualone and PAM and agonist activities of PPTQ significantly; also recorded: Elimination

## Fab: Fab fragment of 1F4 monoclonal antibody against the α1 subunit, used for cryo-EM particle alignment
[8]
  Effect on flumazenil's activity or binding affinity: no significant effect
[8]; weak positive allosteric modulator
  Shift of the EC50 for GABA to the left: 2.5 fold

## CC(C)c1cccc(C(C)C)c1O [propofol]
[9]
  Activity at receptors with serine at the β265 position: remain active
[10]
  Effect of mutation on potentiation: significantly reduces potentiation of propofol
[11]
  Effect of mutation on PAM and agonist activities: detrimental to the PAM and agonist activities

## CCOC(=O)c1cncn1[C@H](C)c1ccccc1 [etomidate]
[9]
  Activity at receptors with serine at the β265 position: remain active
[10]
  Effect of mutation on potentiation: almost entirely eliminates potentiation by etomidate
[5]
  Effect of mutation on PAM activity: increases etomidate modulatory efficacy
[1]
  Effect of mutation on PAM activity: PAM efficacy plummets
  Effect of mutation on direct activation (agonist activity): dramatically more efficacious agonists
[11]
  Effect of mutation on PAM and agonist activities: detrimental to the PAM and agonist activities

## Cc1ccccc1-n1c(C)nc2ccccc2c1=O [methaqualone, Methaqualone]
[3]
  Effect of mutation on PAM activity: more subtle decrease
[3]; listed as Methaqualone
  Effect of mutation on PAM activity: Decreased PAM activity
[12]
  Effect of mutation on PAM activity: from a PAM into a NAM
[12]; listed as Methaqualone
  Effect of mutation on PAM activity: Elimination of PAM activity
[13]
  Methaqualone-mediated modulation: effect of the two mutations: affected neither
[1]
  Effect of mutation on PAM activity: PAM efficacy plummets
  Effect of mutation on direct activation (agonist activity): dramatically more efficacious agonists
[1]; listed as Methaqualone
  Effect of mutation on direct activation (agonist activity): Pronounced increase in direct activation
[6]; 300 µM methaqualone
  Potentiation in the presence of saturating concentrations of flumazenil: not significantly affected
[6]; decreasing degree of potentiation above 300 µM
  Shape of PAM concentration-response curve: bell-shaped concentration-response curve
[6]; very high concentrations (200–1000 µM)
  Agonist activity: minute but significant agonist activity
[14]
  Effect of α1H102R mutation on potentiation: not significantly affected
[2]; 100 µM methaqualone with GABA EC10
  Effect of β2N265M mutation on methaqualone potentiation: most of the methaqualone activity was lost
[2]; 100 µM methaqualone, β2N265M
  Effect on receptor activation by GABA: no measurable effect
[2]; β2N265M
  Effect on potentiation by diazepam (competition assay): block much of the PAM activity of diazepam
[2]; β2N265M, listed as MQ
  Effect on potentiation by diazepam (competition assay): inhibit diazepam potentiation
[15]
  Effect of mutation on PAM activity: from a NAM to a PAM
[15]; listed as Methaqualone
  Effect of mutation on PAM activity: Rescued PAM activity
[7]
  Effect of mutation on PAM activity: reduces the PAM activity of methaqualone and PAM and agonist activities of PPTQ significantly
[7]; listed as Methaqualone
  Effect of mutation on PAM activity: Almost eliminated PAM activity
